Measured values taken from patent US4073912A, “Piperidylidene derivatives of benzo-fused xanthenes, thioxanthenes and dibenzoxepins and antipsychotic use thereof” (priority 1976, dated 1978).
Counter-ions that a name gives are not always drawn. Like-named read-outs stand apart in the source and are kept apart here.

Experiments:
[1] = tested on: shock avoidance acquisition; experiment: Blockade (antagonism) of shock avoidance acquisition in rats; format: in vivo; conditions: Rattus norvegicus, ip, read-out: ED50 for antagonism (blockade) of avoidance acquisition (A)
Procedure: (§1) To predict the potential ability of a drug to cause EPS, the ratio of its ED50 (i.p.) for antagonism of amphetamine-induced rotation to its ED50 (i.p.) for blockade of shock avoidance acquisition in the rat, a procedure for assessing antipsychotic activity, (R/A ratio) is calculated. The ED50 values of some clinically established antipsychotics in the avoidance and rotational tests and the R/A ratios are presented in Table I.

[2] = compared with chlorpromazine; cited from earlier work
[3] = tested on: striatal dopamine receptors; experiment: in vivo; format: in vivo, rat; conditions: for R/A ratio: rat; for ED50 for antagonism of amphetamine-induced rotation (R): rats with unilateral 6-hydroxydopamine lesion, i.p.
Description: (§2) There is evidence that antipsychotic drugs cause EPS by interfering with neurotransmission in a nigrostriatal dopaminergic pathway. It is thought that they block dopamine receptors in the neostriatum. Therefore, the ability of a drug to block striatal dopamine receptors is a measure of its EPS liability.
(§3) This treatment causes degeneration of the nigrostriatal dopaminergic pathway accompanied by a marked decrease in the dopamine content of the neostriatum on the side of the lesion. Animals with this lesion develop postural and motor asymmetries which are altered by drugs which affect dopaminergic activity. Amphetamine, which releases dopamine and norepinephrine from catecholaminergic neurons, causes these rats to rotate unidirectionally toward the side of the lesion; i.e., ipsilaterally. Since there is a much larger amount of dopamine to be released by amphetamine from the intact nigrostriatal neurons on the non-lesioned side than from those remaining on the lesioned side, the rotational behavior is apparently due to a preponderance of activation of striatal dopamine receptors on the intact side. The ability of a drug to antagonize the rotational behavior is therefore a measure of its ability to block striatal dopamine receptors and is indicative of its potential to produce EPS.
as §1

in vivo = format: in vivo, rat; conditions: rat, in vivo, ip, rat
Description: as §2, §3, §1

[4] = ED50 (i.p.) rotation / ED50 (i.p.) avoidance, high ratio predicts low potential to produce EPS, read-out: R/A ratio

SMILES | ED50 [1] [mg/kg] | propensity to cause EPS [2] | R/A ratio ([3]; ED50 (i.p.) rotation / ED50 (i.p.) avoidance, high ratio predicts low potential to produce EPS) | ED50 for antagonism of amphetamine-induced rotation (R) [3] [mg/kg] | selectivity ratio (in vivo; [4]) | ED50 ([1]; rats, i.p.) [mg/kg] | R/A ratio ([3]; in vivo, ip) | selectivity ratio (in vivo; R/A ratio) | selectivity ratio (in vivo; read-out: R/A ratio) | EPS liability ([3]; indicated by R/A ratio of 10)
O=c1[nH]c2ccccc2n1C1CCN(CCCC(c2ccc(F)cc2)c2ccc(F)cc2)CC1 [Pimozide] | 0.24 | considerably greater propensity to cause EPS than chlorpromazine | 0.3 to 0.5 | 0.08 | 0.3 | – | – | – | – | –
CN1CCN(CCCN2c3ccccc3Sc3ccc(C(F)(F)F)cc32)CC1 [Trifluoperazine] | – | considerably greater propensity to cause EPS than chlorpromazine | – | 0.12 | – | 0.26 | 0.3 to 0.5 | 0.46 | – | –
CN1CCN(C2=Nc3cc(Cl)ccc3Nc3ccccc32)CC1 [Clozapine] | – | produce EPS to a lesser extent than chlorpromazine | – | – | – | 6.6 | – | – | 3.8 | –
CN1CCC(=C2c3ccccc3Oc3ccc4ccccc4c32)CC1 [12-(1-methyl-4-piperidylidene)-12H-benzo a!xanthene hydrochloride] | – | – | – | 6.4 | 10 | 0.64 | – | – | – | essentially free of EPS liability
CSc1ccc2c(c1)N(CCC1CCCCN1C)c1ccccc1S2 (centres unmarked) [Thioridazine] | – | – | – | – | – | 5.1 | – | – | – | –
CN(C)CCCN1c2ccccc2Sc2ccc(Cl)cc21 [Chlorpromazine] | 1.5 | – | – | 2.0 | 1.3 | – | – | – | – | –
O=C(CCCN1CCC(O)(c2ccc(Cl)cc2)CC1)c1ccc(F)cc1 [Haloperidol] | 0.16 | considerably greater propensity to cause EPS than chlorpromazine | – | 0.05 | – | – | 0.3 to 0.5 | 0.31 | – | –
